Laboratory results taken from US6664393B2 (priority 1999, dated 2003).
Where two headings read alike, the source gives them in different places.

Key:
human factor Xa = target: T1, human factor Xa (Homo sapiens, UniProt P00742); test: Factor Xa assay (chromogenic, substrate S-2765); format: biochemical
T1 construct: purchased Enzyme Research Laboratories, Inc; South Bend, Ind
Description: (§1) Purified enzymes are used in chromogenic assays.
(§2) Ki=IC50/{1+(substrate concentration/Km)}
The assay was performed by pre-incubating the compound of interest of formula I plus enzyme for 10 min. The assay was then initiated by adding substrate to obtain a final volume of 100 μl. The initial velocity of chromogenic substrate hydrolysis was measured by the change in absorbance at 405 nm using a Bio-tek Instruments kinetic plate reader (Ceres UV9OOHDi) at 25° C. during the linear portion of the time course (usually 1.5 min after addition of substrate).

[1] = target: T2, factor VIIa/tissue factor (Homo sapiens, UniProt P08709); test: Factor VIIa assay (chromogenic, substrate S-2288); format: biochemical
T2 construct: 25 μl human factor VIIa and TF (5 nM and 10 nM, respective final concentrations)
T2 sequence (P08709 61-212): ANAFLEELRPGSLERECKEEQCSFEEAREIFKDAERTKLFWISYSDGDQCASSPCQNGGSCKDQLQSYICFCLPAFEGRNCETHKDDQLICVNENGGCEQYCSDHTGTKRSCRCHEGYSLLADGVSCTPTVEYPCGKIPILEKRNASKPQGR
T2 sequence (P08709 213-466): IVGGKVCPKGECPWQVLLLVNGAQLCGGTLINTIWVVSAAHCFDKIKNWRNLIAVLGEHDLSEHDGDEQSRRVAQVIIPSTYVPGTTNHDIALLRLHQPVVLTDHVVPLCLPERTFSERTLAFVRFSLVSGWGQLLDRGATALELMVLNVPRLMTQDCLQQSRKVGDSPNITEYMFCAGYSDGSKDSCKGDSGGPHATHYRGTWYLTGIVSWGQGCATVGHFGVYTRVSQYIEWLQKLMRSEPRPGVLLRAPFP
T2 sequence (P13726 33-295, further chain): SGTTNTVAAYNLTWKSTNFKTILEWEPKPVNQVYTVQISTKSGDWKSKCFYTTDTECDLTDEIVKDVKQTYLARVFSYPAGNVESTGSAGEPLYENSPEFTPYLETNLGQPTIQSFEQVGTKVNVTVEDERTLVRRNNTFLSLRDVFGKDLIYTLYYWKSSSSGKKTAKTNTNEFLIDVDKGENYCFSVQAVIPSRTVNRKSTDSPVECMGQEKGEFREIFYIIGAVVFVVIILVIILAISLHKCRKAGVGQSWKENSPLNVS
Description: as §1, §2
Kinetic assays were conducted at 25° C. in half-area microtiter plates (Costar Corp., Cambridge, Mass.) using a kinetic plate reader (Molecular Devices Spectramax 250).

[2] = inhibition constant for inhibition of factor VIIa, 5 nM factor VIIa and 10 nM TF, 25° C., 500 μM substrate, read-out: Ki (FVIIa)
[3] = inhibition constant for inhibition of factor Xa, 25° C., 0.5 nM enzyme, 140 μM substrate, read-out: Ki (FXa)

T1 sequence (P00742 235-488 limits assumed): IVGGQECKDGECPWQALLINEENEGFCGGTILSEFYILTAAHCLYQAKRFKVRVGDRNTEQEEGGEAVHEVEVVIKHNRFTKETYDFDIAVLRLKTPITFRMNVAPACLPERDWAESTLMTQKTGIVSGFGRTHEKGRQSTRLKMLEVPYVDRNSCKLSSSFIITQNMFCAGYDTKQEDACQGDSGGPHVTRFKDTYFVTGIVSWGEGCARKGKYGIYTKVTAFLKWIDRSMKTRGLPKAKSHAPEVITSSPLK
T1 sequence (P00742 41-179 limits assumed): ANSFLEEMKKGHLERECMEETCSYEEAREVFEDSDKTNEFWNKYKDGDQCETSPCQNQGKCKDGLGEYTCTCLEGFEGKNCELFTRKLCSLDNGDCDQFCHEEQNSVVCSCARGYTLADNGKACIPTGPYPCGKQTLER

| SMILES | Ki (human factor Xa) [nM] | Ki [1, 2] [nM] | Ki (human factor Xa; [3]) [nM] | Ki [1] [nM] |
| --- | --- | --- | --- | --- |
| N=C(N)NCCC[C@H](NC(=O)c1ccc([N+](=O)[O-])c(OCCc2ccc(Cl)cc2Cl)c1)C(N)=O [Example 1, (S)-4-Nitro-N-(1-carbamoyl-4-guanidinobutyl)-3-[2-(2,4-dichlorophenyl)ethoxy]benzamide] | 48 | 188000 | – | – |
| N=C(N)NCCC[C@H](NC(=O)c1ccc(N)c(OCCc2ccc(Cl)cc2Cl)c1)C(N)=O [Example 2, (S)-4-Amino-N-(-carbamoyl-4-guanidinobutyl)-3-[2-(2,4-dichlorophenyl)ethoxy]benzamide] | – | – | 76 | – |
| CC(=O)Nc1ccc(C(=O)N[C@@H](CCCNC(=N)N)C(N)=O)cc1OCCc1ccc(Cl)cc1Cl [Example 3, (S)-4-Acetylamino-N-(1-carbamoyl-4-guanidinobutyl)-3-[2-(2,4-dichlorophenyl)ethoxy]benzamide] | – | – | 670 | – |
| N=C(N)NCCC[C@H](NC(=O)c1ccc(NC(=O)CCC(=O)O)c(OCCc2ccc(Cl)cc2Cl)c1)C(N)=O [Example 4, (S)-N-{4-(1-Carbamoyl-4-guanidinobutylcarbamoyl)-2-[2-(2,4-dichlorophenyl)ethoxy]phenyl}succinamic Acid] | 354 | 42000 | – | – |
| N=C(N)NCCC[C@H](NC(=O)c1cc(O)c(Br)c(OCCc2ccc(Cl)cc2Cl)c1)C(N)=O [Example 5, (S)-4-Bromo-N-(1-carbamoyl-4-guanidinobutyl)-3-[2-(2,4-dichlorophenyl)-ethoxy]-5-hydroxybenzamide] | 18 | 58000 | – | – |
| Cc1c(O)cc(C(=O)N[C@@H](CCCNC(=N)N)C(N)=O)cc1OCCc1ccc(Cl)cc1Cl [Example 6, (S)-N-(1-Carbamoyl-4-guanidinobutyl)-3-[2-(2,4-dichlorophenyl)ethoxy]-5-hydroxy-4-methylbenzamide] | 38 | 7500 | – | – |
| N=C(N)NCCC[C@H](NC(=O)c1cccc(OCCc2ccc(Cl)cc2)c1)C(N)=O [Example 8] | 1100 | – | – | – |
| N=C(N)NCCC[C@H](NC(=O)c1ccc([N+](=O)[O-])c(OCCc2ccc(Cl)cc2)c1)C(N)=O [Example 11] | 192 | – | – | – |
| Cc1ccc(CCOc2cccc(C(=O)N[C@@H](CCCNC(=N)N)C(N)=O)c2)cc1 [Example 16] | 6150 | – | – | – |
| Cc1cc(C)c(CCOc2cc(C(=O)N[C@@H](CCCNC(=N)N)C(N)=O)nc3ccccc23)c(C)c1 [Example 32] | 13000 | – | – | 13000 |
| N=C(N)NCCC[C@H](NC(=O)c1cc(OCCc2ccc(Cl)cc2Cl)c2ccccc2n1)C(N)=O [Example 34] | 750 | 9800 | – | – |
| N=C(N)NCCC[C@H](NC(=O)c1cc(O)c(Br)c(OCCc2ccc(Cl)cc2Cl)c1)C(=O)NCc1cccnc1 [Example 39, (S)-4-Bromo-3-[2-(2,4-dichlorophenyl)ethoxy]-N-{4-guanidino-1-[(pyridin-3-ylmethyl)carbamoyl]butyl}-5-hydroxybenzamide] | 445 | > 200000 | – | – |
| CN(C)C(=O)[C@H](CCCNC(=N)N)NC(=O)c1cc(O)c(Br)c(OCCc2ccc(Cl)cc2Cl)c1 [Example 45] | 31 | > 200000 | – | – |
| N=C(N)NCCC[C@H](NC(=O)c1cc(O)c(Br)c(OCCc2ccc(Cl)cc2Cl)c1)C(=O)O [Example 46] | 59 | > 200000 | – | – |
| CCCOC(=O)[C@H](CCCNC(=N)N)NC(=O)c1cc(O)c(Br)c(OCCc2ccc(Cl)cc2Cl)c1 [Example 47] | 21 | > 200000 | – | – |
| COc1ccc(C(=O)N[C@@H](CCCNC(=N)N)C(=O)N(C)C)cc1OCCc1ccc(Cl)cc1Cl [Example 48] | 560 | > 200000 | – | – |
| CCCOC(=O)[C@H](CCCNC(=N)N)NC(=O)c1ccc(OC)c(OCCc2ccc(Cl)cc2Cl)c1 [Example 50] | 729 | > 200000 | – | – |
